Experimental data from PMC4506051, “Pharmacokinetic Profiles of Active Ingredients and Its Metabolites Derived from Rikkunshito, a Ghrelin Enhancer, in Healthy Japanese Volunteers: A Cross-Over, Randomized Study” (PLoS ONE, 2015).

Legend:
[1] = clinical; details: human, in vivo, po, Median t max (range)
Description: The first trial was a nonrandomized, open-label, one-period design. The second trial was a randomized, open-label, three-arm, three-period design (Fig 1). With respect to inclusion criteria, the studies included healthy Japanese adults between 20 and 45 years of age with a body mass index between 18 and 25 who were willing and able to comply with the study requirements. Exclusion criteria for this study included a history of significant liver, heart, or vessel disease and consumption of supplements that contained any rikkunshito ingredients or any drug within 3 days to 1 week before the first dose. Other standard exclusion criteria included relevant allergies, pregnant or nursing females, and any alcohol or nicotine use. The sample size was set as more than 15 based on the Ministry of Health, Labour and Welfare’s guidelines. Subjects allocated to a screening test were randomized to one of three groups by the central allocation system (allocation ratio 1:1:1). A random sequence was generated using a computer. The safety endpoint was evaluated in all volunteers. This endpoint was defined on the basis of a physician’s judgement after examination or observation that a serious adverse event had occurred. Adverse events included death, a life-threatening event, an event requiring hospitalization for treatment or an extended stay in hospital, an event resulting in permanent or temporary disability or dysfunction, an event resulting in a congenital abnormality, or any other serious medical phenomenon. With respect to side effects, no specific conditions were defined, and all adverse events for which no causal relationship with the drug could be excluded were deemed to be side effects. In each stage during the 48-h period following rikkunshito administration, the physician monitored the patient for subjective symptoms, objective findings, swelling, body temperature (axillary), blood pressure (sitting), and pulse (sitting). The physician also conducted a hematological examination to measure the patient’s red blood cell, leucocyte and platelet counts, hemoglobin level, and hematocrit value. A biochemical examination was conducted to determine total protein, blood urea nitrogen, creatinine, uric acid, aspartate aminotransferase, alanine aminotransferase, total bilirubin, alkaline phosphatase, γ-glutamyltranspeptidase albumin, prothrombin time, total cholesterol, C-reactive protein, and potassium to identify any abnormalities in comparison with the subject’s condition prior to administration. All participants fasted for 12 h before administration and 4 h after administration of the study drug.
In the second quantitative trial, 12-mL blood samples were collected at 0 (preadministration), 0.25, 0.5, 1, 2, 3, 4, 6, 8, 10, 12, 24, and 48 h after a single oral administration of rikkunshito (Lot H05142). A total of 3 daily doses were used in this trial, i.e., the clinical dose per administration (2.5 g) as the lowest dose, the clinical daily dose (7.5 g) as the highest dose, and an intermediate dose (5.0 g), to broadly discuss the pharmacokinetic characteristics of the ingredients measured. The trial participants were hospitalized overnight on the day they ingested rikkunshito, and returned home the following day after blood samples were collected at the 24-h time point. The participants returned to the hospital to provide blood samples at 48 h. The blood was immediately centrifuged at 1700 ×g for 15 min to obtain plasma. Plasma fractions were stored at −20°C or lower until analysis.
Plasma, urine, and rikkunshito formulation samples were analyzed for rikkunshito ingredients concentrations using a liquid chromatography–mass spectrometry with tandem mass spectrometer assay (LC–MS/MS; API5000, Triple Quad 6500, or QTRAP5500; AB Sciex, Tokyo, Japan) or gas chromatography–mass spectrometry. Further information of analytical methods can be found at S1 Appendix.

[2] = Method validation: stability in blood; details: 4 pg/mL
[3] = Method validation: long-term stability in plasma; details: 160 pg/mL
[4] = Method validation: freeze-thaw stability in plasma; details: 160 pg/mL, deep freezer (−30°C to −10°C), after 3 cycles of freeze-thaw
[5] = Method validation: post-preparative stability (autosampler)
[6] = Method validation: stability in standard, stock and working solution; details: 0.1 mg/mL
[7] = Exploratory trial: plasma concentration of rikkunshito ingredients after single oral rikkunshito 7.5 g; type: in vivo; details: mean ± S.D., n = 4; for Plasma concentration, 0 h: 0 h (preadministration), single oral rikkunshito 7.5 g; for Plasma concentration, 0.5 h: 0.5 h after single oral rikkunshito 7.5 g; for Plasma concentration, 1 h: 1 h after single oral rikkunshito 7.5 g; for Plasma concentration, 2 h: 2 h after single oral rikkunshito 7.5 g; for Plasma concentration, 4 h: 4 h after single oral rikkunshito 7.5 g; for Plasma concentration, 8 h: 8 h after single oral rikkunshito 7.5 g
Description: A random sequence was generated using a computer. The safety endpoint was evaluated in all volunteers.
(§1) In the first exploratory trial, 20-mL blood samples were collected from the cutaneous vein in the subjects’ forearm via a blood sampling tube that contained heparin at 0 (preadministration), 0.5, 1, 2, 4, and 8 h after a single oral administration of rikkunshito (Lot E24652). The dose of rikkunshito used in this trial was 7.5 g/day, which is the clinical daily dose, to widely explore rikkunshito-derived ingredients that enter the blood. Along with plasma, urine samples were collected at three points: between dinner and bedtime (preadministration), between 0 and 4 h after administration, and between 4 and 8 h after administration. The blood was immediately centrifuged at 1700 ×g for 10 min to obtain plasma. Plasma and urine fractions were stored at −80°C or lower until analysis.
(§2) For quantification of synephrine, 5 µL of standard solution or methanol was added to 100 µL plasma or urine samples followed by mixing. Ten microliters of erythromycin [internal standard (IS)] solution was added to the solutions followed by mixing and centrifugation (20,400 ×g, 5 min, 4°C). The supernatants were loaded onto an Ostro 96-well plate (Waters) and centrifuged (1500 ×g, 3 min, 4°C) followed by injection into the LC–MS/MS.
(§3) For quantification of 30 ingredients other than atractylodin and synephrine, 25 µL of standard solution or methanol was added to 500 µL plasma or urine samples followed by mixing. Atractylenolide III or digoxin (IS) solution (50 μL) was added to the solutions followed by mixing. For urine, 400 µL of blank plasma was added to the solutions. Ammonium acetate solution (100 mM, 100 or 400 µL) was added to the solutions followed by mixing. For enzymatic treatment, plasma and urine samples were incubated with β-glucuronidase (100 units in 100 mM ammonium acetate) for 2 h at 37°C. A solid-phase cartridge (OASIS HLB, 30 mg/1cc, Waters) was conditioned with methanol and 10 mM ammonium acetate solution, and the samples were loaded onto the cartridge. The cartridge was washed water : methanol (9:1, v/v), and 1.5 mL of methanol and 30 µL of propylene glycol were added to the cartridge to elute the analytes. The mixtures were dried at 25°C under a stream of nitrogen gas. Furthermore, 100 μL of 10 mM ammonium acetate : methanol (8:2, v/v) was added to the dried samples followed by mixing and sonication. The solutions were filtered (0.22 µm) and followed by injection into the LC–MS/MS system. […] Those analytical conditions are summarized in S2 Table and S3 Table.

[8] = Exploratory trial: amount of rikkunshito ingredients in urine; type: in vivo, human
Description: as §1, §2, §3

[9] = Stability of ingredients in gastric pH solution (pH 1.2, 37°C); type: physicochemical; details: pH 1.2
Description: Rikkunshito gradually dissolved in acidic solution (pH 1.2) at 37°C, and the concentration of atractylodin after adding 0.25, 0.5, 1, and 2 h was measured by gas chromatography–mass spectrometry.

[10] = of the ingredient in the formulation; summary table, reference not given; cited from earlier work
[11] = Formation of ingredients derived from rikkunshito in formulation, blood, and urine (S11 Table summary); details: after rikkunshito administration, per ingredient in the formulation; for Formation of ingredients: form found in Urine: BQL = below the quantification limit

SMILES	Plasma concentration, 0 h [7]	Plasma concentration, 0.5 h [7]	Plasma concentration, 1 h [7]	Plasma concentration, 2 h [7]	Plasma concentration, 4 h [7]	Plasma concentration, 8 h [7]	Amount in urine, Pre ([8]; human, in vivo)	Amount in urine, 4–8 h ([8]; human, in vivo, po)	Stability in gastric pH solution, Quantitative value ([9]; 0.5 h)	Stability in gastric pH solution, Quantitative value ([9]; 1 h)	Stability in gastric pH solution, Quantitative value ([9]; 2 h)	Metabolite by enterobacterium [10]	Formation of ingredients: form found in Blood [11]	Formation of ingredients: form found in Urine [11]	also measured
O=C1C[C@@H](c2ccc(O)cc2)Oc2cc(O)ccc21 [Liquiritigenin]	–	–	–	–	–	–	–	–	–	–	–	–	–	–	Tmax [1]: > 3 h; Stability in blood, RR ([2]; at room temperature for 2 h): 82.0%; Stability in blood, RR ([2]; on ice for 2 h): 91.6%; Long-term stability, RR ([3]; freezer (−30°C to −10°C) for 22 days): 92.5%; Long-term stability, RR ([3]; freezer (−30°C to −10°C) for 31 days): 87.4%; Long-term stability, RR ([3]; freezer (−30°C to −10°C) for 220 days): 87.9%; Freeze-thaw stability, RR [4]: 92.5%; Post-preparative stability, RR ([5]; 4 pg/mL, autosampler set at 4°C for 25 h): 89.2%; Post-preparative stability, RR ([5]; 4 pg/mL, autosampler set at 4°C for 48 h): 94.1%; Post-preparative stability, RR ([5]; 160 pg/mL, autosampler set at 4°C for 25 h): 99.3%; Post-preparative stability, RR ([5]; 160 pg/mL, autosampler set at 4°C for 48 h): 103.4%; Stock solution stability, RR ([6]; refrigerator (1°C to 8°C) for 54 days): 54 days: 99.6%; Stock solution stability, RR ([6]; refrigerator (1°C to 8°C) for 129 days): 129 days: 103.5%
O=C1C[C@@H](c2ccc(O[C@@H]3O[C@H](CO)[C@@H](O)[C@H](O)[C@H]3O)cc2)Oc2cc(O)ccc21 [Liquiritin]	BQL	1.02 ± 0.131 ng/mL	0.841 ± 0.0943 ng/mL	0.403 ± 0.0913 ng/mL	0.114 ± 0.0392 ng/mL	BQL	15.7 ± 19.0 ng	1900 ± 945 ng	1670 ng/mL	1830 ng/mL	1720 ng/mL	Liquiritigenin^b	Liquiritin Liquiritigenin^c	Liquiritin Liquiritigenin^c	–
C[C@@H]1O[C@@H](O[C@H]2[C@H](Oc3cc(O)c4c(c3)O[C@H](c3ccc(O)cc3)CC4=O)O[C@H](CO)[C@@H](O)[C@@H]2O)[C@H](O)[C@H](O)[C@H]1O [Naringin]	BQL	BQL	0.059 ± 0.0684 ng/mL	BQL	BQL	BQL	70.7 ± 69.2 ng	598 ± 329 ng	959 ng/mL	1060 ng/mL	986 ng/mL	Naringenin (portion)	Naringin Naringenin Conjugate metabolites of naringenin^a	Naringin Naringenin	Amount in urine, 0–4 h ([8]; human, in vivo, po): 1030 ± 313 ng
C[C@@H]1O[C@@H](OC[C@H]2O[C@@H](Oc3cc(O)c4c(c3)O[C@H](c3ccc(O)cc3)CC4=O)[C@H](O)[C@@H](O)[C@@H]2O)[C@H](O)[C@H](O)[C@H]1O [Narirutin]	–	–	–	–	–	–	–	–	1630 ng/mL	1700 ng/mL	1690 ng/mL	Naringenin	Naringenin Conjugate metabolites of naringenin^a	Naringenin	Amount in urine, 0–4 h ([8]; 0–4 h after single oral rikkunshito 7.5 g, mean ± S.D., n = 4): BQL; Amount in urine, 4–8 h ([8]; 4–8 h after single oral rikkunshito 7.5 g, mean ± S.D., n = 4): BQL; Amount in urine, Pre ([8]; preadministration (between dinner and bedtime), mean ± S.D., n = 4): 9.26 ± 18.5 ng
O=C(/C=C/c1ccc(O[C@@H]2O[C@H](CO)[C@@H](O)[C@H](O)[C@H]2O)cc1)c1ccc(O)cc1O [isoliquiritin]	–	–	–	–	–	–	–	–	–	–	–	Isoliquiritigenin	Isoliquiritigenin Conjugate metabolites of isoliquiritigenin	Isoliquiritigenin Conjugate metabolites of isoliquiritigenin	–
